From patent US20030215462A1, “Use of UGT inhibitors to increase bioavailability” (priority 2001, published 2003)
Where “and” joins values, the source holds several entries; their conditions need not be identical. Equal entries are not always repeated.

Assays:
UGT1A10 = target: T1, UGT1A10 (Homo sapiens, UniProt Q9HAW8); assay: in vitro; conditions: pH 7.5, % of control metabolism
T1 sequence (Q9HAW8 26-530): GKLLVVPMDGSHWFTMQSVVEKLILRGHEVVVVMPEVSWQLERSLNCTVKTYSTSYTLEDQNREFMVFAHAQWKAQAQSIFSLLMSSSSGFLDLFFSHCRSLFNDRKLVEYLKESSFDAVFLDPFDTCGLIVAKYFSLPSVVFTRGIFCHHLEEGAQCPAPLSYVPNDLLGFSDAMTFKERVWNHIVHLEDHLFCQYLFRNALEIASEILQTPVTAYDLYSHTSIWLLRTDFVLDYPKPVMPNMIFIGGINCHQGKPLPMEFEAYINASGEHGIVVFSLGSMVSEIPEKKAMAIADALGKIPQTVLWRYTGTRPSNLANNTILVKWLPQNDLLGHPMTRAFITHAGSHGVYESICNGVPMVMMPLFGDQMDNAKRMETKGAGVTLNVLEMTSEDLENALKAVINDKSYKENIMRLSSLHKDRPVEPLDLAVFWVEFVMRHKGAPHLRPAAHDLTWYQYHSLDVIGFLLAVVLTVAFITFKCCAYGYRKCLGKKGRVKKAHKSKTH
Protocol: (§1) Compounds were eluted using a binary solvent gradient system. Solvent A was water brought to pH 8 with NH4OH. Solvent B was methanol. Solvent flow rate was 1 ml/min and the column temperature was maintained at 50° C. Detection was at 280 nm. […] The system was then returned to the initial conditions and equilibrated for 3 min.

UGT1A1 = target: T2, UGT1A1 (Homo sapiens, UniProt P22309); assay: in vitro
T2 sequence (P22309 26-533): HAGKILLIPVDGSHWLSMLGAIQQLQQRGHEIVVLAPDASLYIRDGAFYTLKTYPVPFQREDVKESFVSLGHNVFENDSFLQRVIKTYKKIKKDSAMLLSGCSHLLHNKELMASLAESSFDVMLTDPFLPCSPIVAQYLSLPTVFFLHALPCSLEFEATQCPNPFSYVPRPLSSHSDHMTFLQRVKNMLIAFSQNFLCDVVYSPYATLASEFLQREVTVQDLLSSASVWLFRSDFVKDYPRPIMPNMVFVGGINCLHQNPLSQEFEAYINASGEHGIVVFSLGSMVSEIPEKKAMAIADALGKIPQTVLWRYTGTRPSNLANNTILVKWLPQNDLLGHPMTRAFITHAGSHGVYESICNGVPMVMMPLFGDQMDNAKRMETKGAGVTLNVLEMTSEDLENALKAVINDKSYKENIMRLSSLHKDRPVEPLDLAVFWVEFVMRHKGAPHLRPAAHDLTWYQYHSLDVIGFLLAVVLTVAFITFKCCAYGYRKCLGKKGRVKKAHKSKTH
Protocol: as §1

[1] = test system: UGT enzymes of human liver microsomes; assay: Inhibition of 2ME2 glucuronidation (MG1, MG2) in human liver microsomes; format: biochemical; conditions: liver 062101, 2ME2 50 μM
Text: Compounds were eluted using a binary solvent gradient system where solvent A was dilute phosphoric acid (pH 3) and solvent B was 80:20 acetonitrile-methanol. […] Detection was at 280 nm.

[2] = test system: UGT enzymes of human liver microsomes; assay: Inhibition of labetalol glucuronidation (LG1, LG2) in human liver microsomes; format: biochemical; conditions: labetalol 50 μM
[3] = test system: pooled human jejunum microsomes; assay: Glucuronidation of UGT substrates by pooled human jejunum microsomes; conditions: human jejunum microsomes (table footnote)
[4] = test system: UGT enzymes of human liver microsomes; assay: Inhibition of 7-HFC glucuronidation in human liver microsomes; format: biochemical; conditions: 7-HFC 50 μM, human liver microsomes 100 μg/ml, 15 min
UGT2B15 = UGT2B15 (Homo sapiens, UniProt P54855)
Chain of UGT2B15 (P54855 24-530): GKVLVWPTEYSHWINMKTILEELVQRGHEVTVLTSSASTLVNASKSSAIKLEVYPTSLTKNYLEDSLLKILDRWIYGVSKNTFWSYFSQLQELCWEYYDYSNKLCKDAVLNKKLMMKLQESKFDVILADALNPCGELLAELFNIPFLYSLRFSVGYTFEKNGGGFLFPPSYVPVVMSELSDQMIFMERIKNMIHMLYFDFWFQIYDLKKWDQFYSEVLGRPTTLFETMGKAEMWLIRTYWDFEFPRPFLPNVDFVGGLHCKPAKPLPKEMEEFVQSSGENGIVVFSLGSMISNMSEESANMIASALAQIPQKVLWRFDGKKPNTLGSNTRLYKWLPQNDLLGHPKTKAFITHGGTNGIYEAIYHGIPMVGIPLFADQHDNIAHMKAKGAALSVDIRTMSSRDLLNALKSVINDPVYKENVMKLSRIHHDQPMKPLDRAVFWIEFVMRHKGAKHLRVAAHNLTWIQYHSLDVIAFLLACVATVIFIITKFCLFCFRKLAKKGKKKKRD

UGT1A3 = target: T3, UGT1A3 (Homo sapiens, UniProt P35503)
T3 sequence (P35503 29-534): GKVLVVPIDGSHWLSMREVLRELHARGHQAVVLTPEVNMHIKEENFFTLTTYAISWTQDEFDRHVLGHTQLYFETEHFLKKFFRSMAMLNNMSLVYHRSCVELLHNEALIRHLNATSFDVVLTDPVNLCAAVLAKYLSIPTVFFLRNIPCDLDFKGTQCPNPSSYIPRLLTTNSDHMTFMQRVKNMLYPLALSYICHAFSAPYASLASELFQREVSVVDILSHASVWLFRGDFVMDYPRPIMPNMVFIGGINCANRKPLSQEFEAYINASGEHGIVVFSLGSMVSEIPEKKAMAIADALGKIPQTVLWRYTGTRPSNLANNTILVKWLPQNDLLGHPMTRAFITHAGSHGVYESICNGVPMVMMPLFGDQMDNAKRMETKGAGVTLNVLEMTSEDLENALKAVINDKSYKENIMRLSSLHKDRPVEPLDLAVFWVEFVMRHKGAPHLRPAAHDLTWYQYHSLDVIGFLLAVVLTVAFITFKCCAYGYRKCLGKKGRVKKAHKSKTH

[5] = pH 7.5, % of control metabolism, raloxifene G1
[6] = pH 7.5, % of control metabolism, raloxifene G2
[7] = pH 7.5, Inhibition of raloxifene glucuronidation, G1, UGT1A1
[8] = pH 7.5, Inhibition of raloxifene glucuronidation, G2, UGT1A1

activity at 15 min, 50 µM (UGT1A10; raloxifene G1) [%]	activity at 15 min, 50 µM (UGT1A10; raloxifene G2) [%]	activity at 15 min, 25 µM (UGT1A1; [5]) [%]	activity at 15 min, 50 µM (UGT1A1; [5]) [%]	activity at 15 min, 25 µM (UGT1A1; [6]) [%]	activity at 15 min, 50 µM (UGT1A1; [6]) [%]	activity at 15 min, 25 µM (UGT1A1; [7]) [%]	activity at 15 min, 50 µM (UGT1A1; [7]) [%]	activity at 15 min, 25 µM (UGT1A1; [8]) [%]	activity at 15 min, 50 µM (UGT1A1; [8]) [%]	residual metabolism (% of control), 2ME2 MG1 ([1]; inhibitor 10 μM)	residual metabolism (% of control), 2ME2 MG2 ([1]; inhibitor 10 μM)	SMILES	other results
54	51	39	23	43	25	39	23	43	25			O=C(O[C@@H]1Cc2c(O)cc(O)cc2O[C@@H]1c1ccc(O)c(O)c1)c1cc(O)c(O)c(O)c1 [Epicatechin gallate]	
90	90	53	31	53	33	53	31	53	33			O=C(O)c1cc(-c2ccc(F)cc2F)ccc1O [Diflunisal, reference compound]	residual metabolism (percentage of control), labetalol LG1 ([2]; inhibitor 500 μM): 43 (5) %; residual metabolism (percentage of control), labetalol LG2 ([2]; inhibitor 500 μM): 35 (2) %
												O=c1cc(C(F)(F)F)c2ccc(O)cc2o1 [7-HFC, 7-hydroxy-4-(trifluoromethyl)coumarin]	7-HFC metabolism rate [3]: 6,829 ± 61 pmol/min/mg
										72 (2) %	632 (4) %	CC/C(=C(/CC)c1ccc(O)cc1)c1ccc(O)cc1 [Diethylstilbestrol, reference compound]	% of control metabolism (SD, n = 3), 7-HFC glucuronidation ([4]; inhibitor 5 μM): 90 (3) %; % of control metabolism (SD, n = 3), 7-HFC glucuronidation ([4]; inhibitor 10 μM): 80 (4) %; residual metabolism (% of control), 2ME2 MG1 ([1]; inhibitor 1 μM): 88 (2) %; residual metabolism (% of control), 2ME2 MG2 ([1]; inhibitor 1 μM): 335 (5) %; residual metabolism (percentage of control), labetalol LG1 ([2]; inhibitor 10 μM): 66 (6) %; residual metabolism (percentage of control), labetalol LG2 ([2]; inhibitor 10 μM): 68 (7) %; residual metabolism (percentage of control), labetalol LG1 ([2]; inhibitor 25 μM): 39 (1) %; residual metabolism (percentage of control), labetalol LG2 ([2]; inhibitor 25 μM): 45 (3) %
										24 (1) %	69 (6) %	O=C(OC[C@H]1O[C@@H](OC(=O)c2cc(O)c(O)c(OC(=O)c3cc(O)c(O)c(O)c3)c2)[C@H](OC(=O)c2cc(O)c(O)c(OC(=O)c3cc(O)c(O)c(O)c3)c2)[C@@H](OC(=O)c2cc(O)c(O)c(OC(=O)c3cc(O)c(O)c(O)c3)c2)[C@@H]1OC(=O)c1cc(O)c(O)c(OC(=O)c2cc(O)c(O)c(O)c2)c1)c1cc(O)c(O)c(OC(=O)c2cc(O)c(O)c(O)c2)c1 [Tannic acid]	% of control metabolism (SD, n = 3), 7-HFC glucuronidation ([4]; inhibitor 5 μM): 72 (1) %; % of control metabolism (SD, n = 3), 7-HFC glucuronidation ([4]; inhibitor 10 μM): 47 (2), % and 50 (1) %; residual metabolism (% of control), 2ME2 MG1 ([1]; inhibitor 2 μM): 62 (2) %; residual metabolism (% of control), 2ME2 MG2 ([1]; inhibitor 2 μM): 105 (3) %; residual metabolism (% of control), 2ME2 MG1 ([1]; inhibitor 5 μM): 39 (0) %; residual metabolism (% of control), 2ME2 MG2 ([1]; inhibitor 5 μM): 91 (5) %; residual metabolism (percentage of control), labetalol LG1 ([2]; inhibitor 10 μM): 91 (2) %; residual metabolism (percentage of control), labetalol LG2 ([2]; inhibitor 10 μM): 88 (4) %; residual metabolism (percentage of control), labetalol LG1 ([2]; inhibitor 25 μM): 56 (2) %; residual metabolism (percentage of control), labetalol LG2 ([2]; inhibitor 25 μM): 51 (6) %
												CC(CCc1ccccc1)NCC(O)c1ccc(O)c(C(N)=O)c1 (centres unmarked) [Labetalol, labetalol]	labetalol metabolism, in words (UGT2B15): No detectable metabolism was observed; labetalol metabolism, in words (UGT1A3): No detectable metabolism was observed
80	72		72		73		72		73			CCCOC(=O)c1cc(O)c(O)c(O)c1 [Propyl gallate]	% of control metabolism (SD, n = 3), 7-HFC glucuronidation ([4]; inhibitor 1000 μM): 46 (1) %; % of control metabolism (SD, n = 3), 7-HFC glucuronidation ([4]; inhibitor 2000 μM): 32 (0) %

SMILES	activity at 15 min, 50 µM (UGT1A10; raloxifene G1) [%]	activity at 15 min, 50 µM (UGT1A10; raloxifene G2) [%]	activity at 15 min, 25 µM (UGT1A1; [5]) [%]	activity at 15 min, 50 µM (UGT1A1; [5]) [%]	activity at 15 min, 25 µM (UGT1A1; [6]) [%]	activity at 15 min, 50 µM (UGT1A1; [6]) [%]	activity at 15 min, 25 µM (UGT1A1; [7]) [%]	activity at 15 min, 50 µM (UGT1A1; [7]) [%]	activity at 15 min, 25 µM (UGT1A1; [8]) [%]	activity at 15 min, 50 µM (UGT1A1; [8]) [%]	residual metabolism (% of control), 2ME2 MG1 ([1]; inhibitor 10 μM)	residual metabolism (% of control), 2ME2 MG2 ([1]; inhibitor 10 μM)	other results
C=CCc1ccc(O)c(OC)c1 [Eugenol]	85	81											activity at 15 min, 50 µM (UGT1A1; pH 7.5, % of control metabolism, raloxifene G1, UGT1A1, inhibitor 50 μM): 85%; activity at 15 min, 50 µM (UGT1A1; pH 7.5, % of control metabolism, raloxifene G2, UGT1A1, inhibitor 50 μM): 79%; activity at 15 min, 50 µM (UGT1A1; pH 7.5, Inhibition of raloxifene glucuronidation, G1, UGT1A1, G1, inhibitor 50 μM, raloxifene 50 μM, 250 μg/ml Supersomes, 1 mM UDPGA, 15 min): 85%; activity at 15 min, 50 µM (UGT1A1; pH 7.5, Inhibition of raloxifene glucuronidation, G2, UGT1A1, G2, inhibitor 50 μM, raloxifene 50 μM, 250 μg/ml Supersomes, 1 mM UDPGA, 15 min): 79%
O=C(O[C@@H]1Cc2c(O)cc(O)cc2O[C@H]1c1cc(O)c(O)c(O)c1)c1cc(O)c(O)c(O)c1 [Gallocatechin gallate]											56 (1) %	84 (1) %	
O=c1c(O)c(-c2ccc(O)c(O)c2)oc2cc(O)cc(O)c12 [Quercetin]	55	48	13	2	13	3	13	2	13	3			residual metabolism (percentage of control), labetalol LG1 ([2]; inhibitor 500 μM): 36 (3) %; residual metabolism (percentage of control), labetalol LG2 ([2]; inhibitor 500 μM): 23 (1) %; activity at 15 min, 25 µM (UGT1A10; raloxifene G1): 80%; activity at 15 min, 25 µM (UGT1A10; raloxifene G2): 80%; activity at 15 min, 10 µM (UGT1A1; [5]): 45%; activity at 15 min, 10 µM (UGT1A1; [6]): 43%; activity at 15 min, 2 μM (UGT1A1; [7]): 89%; activity at 15 min, 5 µM (UGT1A1; [7]): 71%; activity at 15 min, 2 μM (UGT1A1; [8]): 90%; activity at 15 min, 5 µM (UGT1A1; [8]): 70%
